The numbers were not newly measured in patent US20020098247A1, “Methods and compositions for the improvement of insulin sensitivity, reduction of hyperglycemia, and reduction of hypercholesterolemia with chromium complexes and alpha lipoic acid” (priority 2000, published 2002), which cites them from elsewhere.

For data set [1], the system named is patients with Type I and Type II diabetes.
Data set [2] relates to isolated vasculature of diabetic rats.
The subject of data set [3] is Patients with Type II diabetes with symptomatic polyneuropathy. Conditions: intravenous, three weeks.
Data set [4] concerns patients with Type II diabetes. Conditions: 600 mg tid orally, three weeks.
The test system of data set [5] is patients with Type II diabetes. The settings on record: 600 mg intravenously three weeks, then 6 months tid oral.
For data set [6] the following is noted: rats, oral administration of CrCl3 with the NSAID.

`O=C(O)CCCCC1CCSS1` (stereo not drawn) [alpha-lipoic acid]: the “sensory nerve and tibial nerve conduction velocities” value in data set [1] (600 or 1,200 mg per day, intravenous five days then oral two years) was “improvements”. In addition, the “Neuropathy Disability Score values” in data set [1] (600 or 1,200 mg per day, two years) is given as “not significantly affected”. For the same compound, in data set [1] (two-year study), the “incidence or severity of side effects vs placebo” value is on record as “no significant differences”. In addition, the “prevention of the deficit in acetylcholine-induced relaxation in isolated vasculature” value in data set [2] was 94%. In addition, in data set [3] (1,200 mg dose group vs other groups), the “frequency of adverse effects” value was “slightly greater rate of gastrointestinal side effects”. Besides, in data set [3] (two higher doses (600, 1,200 mg per day)), the “decrease of Total Symptom Score (TSS) in the feet” value was “approximately 60%”. Moreover, in data set [4], the “TSS in the feet and NDS scores” value was “improvements”; the “side effects vs placebo” value is listed as “No significant differences”. Also, in data set [5], the “neuropathy as evidenced by the TSS vs placebo” value is reported as “significantly lessened” and the “side effects between groups” value was “no significant differences”.
`CC(=O)Oc1ccccc1C(=O)O` [aspirin, acetylsalicylic acid]: in data set [6], the chromium absorption entry is listed as “facilitated”.
